Measured values from US11028077B2, “Crystalline pharmaceutical and methods of preparation and use thereof” (NOVARTIS PHARMACEUTICALS CORPORATION, priority 2008, dated 2021).
Values joined by “and” are separate entries in the source; they are usually repeats but may differ in a detail not shown here. Equal entries are not always repeated. Where two headings read alike, the source gives them in different places.

Legend:
[1] = tested on: Keratoconjunctivitis Sicca (KCS); test: Canine keratoconjunctivitis sicca (KCS) study; type: in vivo, dog
Description: If dogs had been treated with topical CsA or tacrolimus in the previous six months, they were not enrolled. […] Animals were subjected to an ocular examination once during the initial visit and during five visits over sixteen weeks of the study (Weeks, 2, 4, 8, 12 and 16). The last OE was approximately four weeks after the last dose of the compound of Formula I and after one month of CsA treatment. The adnexa and anterior portions of both eyes were examined using an indirect opthalmoscope. The eyes were dilated with a mydriatic when applicable, to allow evaluation of the lens and fundus, including the retina. An evaluation using a modified McDonald-Shaddock scoring system was performed in conjunction with the slitlamp ocular examinations at each interval. Tears were measured using STT strips during the initial visit and each of the five follow-up visits on Weeks 2, 4, 8, 12 and 16. One strip of STT paper was used for each eye for each interval. […] The length, in mm, of wetting below the notch of the paper was recorded. Fluorescein and rose bengal staining was performed at the each of the initial and follow up examinations. Intraocular pressure measurements (IOPs) were performed using a Tono-Pet Vet® in conjunction with each of the OEs. Digital ocular images were taken before and after staining (with fluorescein and rose bengal) during each of the OEs. Conjunctival biopsies were taken at the initial (pretreatment) visit and the Week 12 visit. The second biopsy was taken more lateral (approx. 1 mm) to the initial biopsy. Following appropriate preparation a small conjunctival biopsy was taken from the ventral fornix of each eye.

Solubility studies = type: physicochemical
[2] = tested on: human mononuclear cells (PBMC) stimulated with staphylococcal enterotoxin B (SEB); test: cells; type: cell-based
[3] = tested on: HuT 78 cell adhesion to 5dICAM-Ig; test: Human T-cell adhesion assay (HuT 78 cell adhesion to 5dICAM-Ig); type: cell-based; conditions: HuT78, HuT 78 cells, read-out: EC50, inhibition of T-cell adhesion
Protocol: The T-cell adhesion assay was performed using the human T-lymphoid cell line HuT 78 (ATCC TIB-161). Goat anti-HuIgG(Fc) was diluted to 2 μg/ml in PBS and 96-well plates were coated with 50 μl/well at 37° C. for 1 h. Plates were washed with PBS and blocked for 1 h at room temperature with 1% BSA in PBS. 5 domain ICAM-Ig was diluted to 100 ng/ml in PBS and 50 μl/well was added to the plates O/N at 4° C. HuT 78 cells were centrifuged at 100 g and the cell pellet was treated with 5 mM EDTA for ˜5′ at 37° C. in a 5% CO2 incubator. Cells were washed in 0.14 M NaCl, 0.02 M Hepes, 0.2% glucose and 0.1 mM MnCl2 (assay buffer) and centrifuged. The cells were resuspended in assay buffer to 3.0×10^6 c/ml Inhibitors were diluted in assay buffer to a 2× final concentration and pre-incubated with HuT78 cells for 30′ at room temperature. 100 μl/well of cells and inhibitors were added to the plates and incubated at room temperature for 1 h. 100 μl/well PBS was added and the plates were sealed and centrifuged inverted at 100 g for 5′. Unattached cells were flicked out of the plate and excess PBS was blotted on a paper towel. […] The enzyme reaction was stopped with […] 50 mM glycine/5 mM EDTA and read on a platereader at […]. HUT 78 cell adhesion to 5dICAM-Ig was measured using the p-nitrophenyl n-acetyl-f3-D-glucosaminide method of Landegren, U. (1984). […]

[4] = Phase 1 clinical trial, plasma PK analysis; type: in vivo, human
Protocol: Samples were also obtained at 48 hours post dose on Days 1, 14 and 27 and a single blood sample was collected at the follow-up visit at the end of the study.

[5] = Plasma PK after single IV bolus dose in rats; type: in vivo, rat
rabbits = test: 13-week ocular toxicity study in rabbits with 4-week recovery (toxicity and TK); conditions: rabbits (3%)
[6] = single IV bolus 30.0 mg/kg, from rat safety pharmacology study

With `CS(=O)(=O)c1cccc(C[C@H](NC(=O)c2c(Cl)cc3c(c2Cl)CCN(C(=O)c2ccc4ccoc4c2)C3)C(=O)O)c1` [compound of Formula I] the “Schirmer Tear Test (OS), individual dogs” value ([1]; Week 1, left eye, 1% solution, 0.35 mg/eye TID) was 9 mm (2×) and 0 mm (3×) and 7 mm, the “Schirmer Tear Test (OD), individual dogs” value ([1]; Week 1, right eye, 1% solution, 0.35 mg/eye TID) was 8 mm (2×) and 6 mm (2×) and 0 mm and 5 mm and the “Schirmer Tear Test (OS), individual dogs” value ([1]; Week 2, left eye, 1% solution TID) was 4 mm and 0 mm (2×) and 14 mm and 3 mm and 8 mm. The “Schirmer Tear Test (OD), individual dogs” value ([1]; Week 2, right eye, 1% solution TID) was 10 mm and 2 mm (2×) and 11 mm (3×), the “Schirmer Tear Test (OS), individual dogs” value ([1]; Week 4, left eye, 1% solution TID) was 14 mm (2×) and 0 mm (2×) and 7 mm and 5 mm and the “Schirmer Tear Test (OD), individual dogs” value ([1]; Week 4, right eye, 1% solution TID) was 15 mm and 2 mm and 0 mm and 5 mm and 10 mm (2×). The “Schirmer Tear Test (OS), individual dogs” value ([1]; Week 8, left eye, 1% solution TID) was 8 mm (2×) and 0 mm and 2 mm and 17 mm and 6 mm, the “Schirmer Tear Test (OD), individual dogs” value ([1]; Week 8, right eye, 1% solution TID) was 17 mm and 1 mm and 8 mm and 7 mm (2×) and 11 mm and the “Schirmer Tear Test (OS), individual dogs” value ([1]; Week 12, left eye, 1% solution TID) was 8 mm (2×) and 3 mm and 7 mm and 15 mm and 4 mm. For the same compound, the “Schirmer Tear Test (OD), individual dogs” value ([1]; Week 12, right eye, 1% solution TID) was 16 mm and 0 mm and 8 mm and 7 mm and 13 mm and 9 mm, the “Schirmer Tear Test (OS), individual dogs” value ([1]; Week 16, left eye, four weeks after last dose and after one month of CsA 0.2% ointment) was 17 mm and 3 mm and 5 mm and 16 mm and 7 mm and 19 mm and the “Schirmer Tear Test (OD), individual dogs” value ([1]; Week 16, right eye, four weeks after last dose and after one month of CsA 0.2% ointment) was 18 mm and 12 mm and 8 mm (3×) and 22** mm. For the same compound, the “Maximum-Minimum Analysis, maximal change in STT, OS, individual dogs” value ([1]; Weeks 1-12, left eye) was 7 mm (2×) and 11 mm and 3 mm and 10 mm and 6 mm, the “Maximum-Minimum Analysis, maximal change in STT, OD, individual dogs” value ([1]; Weeks 1-12, right eye) was 3 mm and 8 mm (3×) and −4 mm and 5 mm and the “average improvement in STT, all 12 eyes” value ([1]; during the treatment period (12 weeks)) was 4 mm. For the same compound, the “Histopathological evaluation of conjunctival biopsies taken before and after treatment” value ([1]; pretreatment vs Week 12) was “attenuation of lymphocyte accumulation”, the “mean change in Schirmer test score over pretreatment” value ([1]; week 12) was “Significant improvement” and the solubility (Solubility studies; ethanol/glycol/transcutol solution) was 10 % (w/w). The solubility (Solubility studies; water/glycol/transcutol solution) was 2 % (w/w), the EC50 [2] was no more than 0.15 µM and the EC50 ([2]; read-out: EC50 Cytokine Release GM-CSF) was 0.545 µM. The EC50 ([2]; read-out: EC50 Cytokine Release IFNγ) was 0.0016 µM, the EC50 ([2]; read-out: EC50 Cytokine Release IL-1α) was 0.24 µM and the EC50 ([2]; read-out: EC50 Cytokine Release IL-1β) was 0.36 µM. The EC50 ([2]; read-out: EC50 Cytokine Release IL-2) was 0.0018 µM, the EC50 ([2]; read-out: EC50 Cytokine Release IL-3) was 52.2 µM and the EC50 ([2]; read-out: EC50 Cytokine Release IL-4) was 0.143 µM. It also gave an EC50 ([2]; read-out: EC50 Cytokine Release IL-5) of 0.11 µM, an EC50 ([2]; read-out: EC50 Cytokine Release IL-6) of 43.5 µM and an EC50 ([2]; read-out: EC50 Cytokine Release IL-10) of 0.147 µM. The EC50 ([2]; read-out: EC50 Cytokine Release IL-12p40) was greater than 1000 µM, the EC50 ([2]; read-out: EC50 Cytokine Release IL-13) was 0.36 µM and the EC50 ([2]; read-out: EC50 Cytokine Release IP-10) was 1.16 µM. The EC50 ([2]; read-out: EC50 Cytokine Release MCP-1) was 0.005 µM, the EC50 ([2]; read-out: EC50 Cytokine Release MIP-1α) was 0.02 µM and the EC50 ([2]; read-out: EC50 Cytokine Release TNF-α) was 0.076 µM. It also gave an EC50 [3] of less than 0.05 µM, a plasma concentration ([4]; 0.1% dose strength, single and multiple doses, all timepoints (BLOQ)) of less than 0.500 ng/mL and a plasma concentration ([4]; 0.3% dose strength, single and multiple doses, all timepoints (BLOQ)) of less than 0.500 ng/mL. It also gave a plasma concentration ([4]; 1% dose strength, 3 of 5 subjects (BLOQ)) of less than 0.500 ng/mL, a plasma concentration ([4]; 5% dose strength, generally not detectable after the first hour) of less than 3 ng/mL and an AUC0-n ([5]; single IV bolus 10.0 mg/kg) of 728 ng·h/mL. The CL ([5]; single IV bolus 10.0 mg/kg) was 173 mL/min/kg, the Cmax ([5]; single IV bolus 10.0 mg/kg) was 1056 ng/mL and the MRT ([5]; single IV bolus 10.0 mg/kg) was 0.920 h. The T1/2 ([5]; single IV bolus 10.0 mg/kg) was 3.76 h, the Vss ([5]; single IV bolus 10.0 mg/kg) was 9.56 L/kg and the AUC0-n [5, 6] was 2345.5 ng·h/mL. It also gave a Cmax [5, 6] of 5117.3 ng/mL and an NOAEL (rabbits) of 1.05 mg/eye/3× per day.
